Reference: patent publication US20240197728A1, “METHODS AND PHARMACEUTICAL COMPOSITIONS FOR TREATING REFRACTORY EPILEPSY” (INSERM (INSTITUT NATIONAL DE LA SANTÉ ET DE LA RECHERCHE …, priority 2021, published 2024)

Legend:
KCC2 = target: T1, KCC2 (Rattus norvegicus, UniProt Q63633); assay: KCC2 cluster immunocytochemistry in hippocampal neurons; type: cell-based; conditions: for change of KCC2 cluster area / change of KCC2 cluster density / change of KCC2 cluster intensity: vs DMSO
T1 construct: endogenous in cells; host or cells: primary rat hippocampal neurons (E18-19 Sprague-Dawley)
T1 sequence (Q63633 1-1116 isoform Q63633-2): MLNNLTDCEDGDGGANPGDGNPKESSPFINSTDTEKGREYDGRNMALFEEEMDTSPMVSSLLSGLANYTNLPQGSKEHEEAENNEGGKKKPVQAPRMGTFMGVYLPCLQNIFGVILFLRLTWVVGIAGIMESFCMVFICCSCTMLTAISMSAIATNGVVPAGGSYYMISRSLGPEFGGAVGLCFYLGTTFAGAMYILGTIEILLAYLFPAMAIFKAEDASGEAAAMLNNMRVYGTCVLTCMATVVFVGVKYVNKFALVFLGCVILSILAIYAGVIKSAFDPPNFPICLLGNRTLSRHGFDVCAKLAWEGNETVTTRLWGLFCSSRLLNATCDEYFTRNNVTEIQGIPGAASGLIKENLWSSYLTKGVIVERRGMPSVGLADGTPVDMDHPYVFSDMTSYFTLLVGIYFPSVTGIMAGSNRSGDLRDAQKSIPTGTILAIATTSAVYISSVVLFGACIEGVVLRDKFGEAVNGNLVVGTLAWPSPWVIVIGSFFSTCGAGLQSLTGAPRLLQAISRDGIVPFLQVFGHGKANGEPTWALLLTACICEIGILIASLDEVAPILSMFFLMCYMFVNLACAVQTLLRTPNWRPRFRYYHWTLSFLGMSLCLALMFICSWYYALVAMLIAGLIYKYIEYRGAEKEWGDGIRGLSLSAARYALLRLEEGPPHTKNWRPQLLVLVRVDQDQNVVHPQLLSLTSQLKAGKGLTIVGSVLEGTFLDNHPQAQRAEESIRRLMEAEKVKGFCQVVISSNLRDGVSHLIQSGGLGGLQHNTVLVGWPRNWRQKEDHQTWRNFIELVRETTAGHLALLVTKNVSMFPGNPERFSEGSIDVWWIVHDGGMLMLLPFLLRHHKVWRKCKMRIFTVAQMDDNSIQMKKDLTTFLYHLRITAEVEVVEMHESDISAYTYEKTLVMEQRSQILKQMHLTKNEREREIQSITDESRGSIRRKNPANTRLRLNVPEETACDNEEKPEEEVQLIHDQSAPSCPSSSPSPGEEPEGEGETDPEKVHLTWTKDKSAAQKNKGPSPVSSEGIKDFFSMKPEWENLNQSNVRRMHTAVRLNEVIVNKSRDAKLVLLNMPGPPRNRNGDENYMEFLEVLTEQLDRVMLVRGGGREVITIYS
Protocol: […] Drugs were added directly to the culture medium. For electrophysiology experiments, neurons were also recorded in presence of these drugs in the bath. For biochemistry experiments on rat hippocampo-cortical slices, slices were incubated with either DMSO (vehicle), CLP257, PCPZ, WNK463 or sodium orthovanadate for 2 hours in interface chambers set at 37° C. For human tissue experiments, slices were pre-incubated with either DMSO, CLP257 or PCPZ for 2 hours in interface chambers set at 37° C. and then also recorded in presence of these compounds.
Neurons were fixed for 15 min at room temperature (RT), with paraformaldehyde (PFA, 4% w/v in PBS). Cells were then washed in PBS, permeabilized with […] for 4 min at RT and then exposed to a blocking solution containing goat serum (20% v/v; Invitrogen) and 0.1% Triton X100 diluted in PBS. Neurons were incubated for 1 hour at RT with rabbit KCC2 antibody (1: 500; Sigma) and mouse MAP2 antibody (1:500; Chemicon). Neurons were then incubated for 45 min at RT with AlexaFluor 488-conjugated goat anti-mouse antibody (1:400; Jackson Labs) and with Cy3-conjugated goat anti-rabbit antibody (1:400; Jackson Labs). Neurons were then labeled with DAPI (1:2000, 5 min), washed in PBS and mounted on slides with Mowiol 844 (48 mg/ml, Sigma).
Images were acquired using a 63×objective (NA 1.40) mounted on an upright epifluorescence microscope (DM6000, Leica) equipped with a 12-bit cooled CCD camera (Micromax, Roper Scientific) operated with MetaMorph software (Roper Scientific). For KCC2 clusters detection, exposure time was adjusted to obtain best fluorescence to noise ratio and to avoid pixel saturation. This exposure time was maintained unchanged among cells and conditions. For experiments on non-transfected cells and for each neuron, dendritic sections were chosen using MAP2 labeling and then an image with tetramethylrhodamine (TRITC) filter was acquired to visualize KCC2 labeling.
KCC2 clusters analysis was performed using MetaMorph software (Roper Scientific), as previously described. Images were first flatten background filtered (kernel size, 3×3×2) to enhance cluster outline and a user-defined intensity threshold was applied to select clusters and avoid their coalescence. Clusters were delineated in the area of interest (AOI) and the corresponding regions were transferred onto raw images to quantify cluster density (mean KCC2 cluster number per 10 μm^2) and integrated cluster intensity (integrated fluorescence pixel intensity within clusters). For each culture, the analysis was done on 10 cells per condition and approx. 100 clusters per cell.

recombinant human OSR1 = target: T2, recombinant human OSR1 (Homo sapiens, UniProt O95747); assay: Radiometric kinase profiling assay; type: biochemical; conditions: 70 μM ATP
T2 construct: purchased Eurofins Discovery (KinaseProfiler, contractor)
T2 sequence (O95747 whole entry): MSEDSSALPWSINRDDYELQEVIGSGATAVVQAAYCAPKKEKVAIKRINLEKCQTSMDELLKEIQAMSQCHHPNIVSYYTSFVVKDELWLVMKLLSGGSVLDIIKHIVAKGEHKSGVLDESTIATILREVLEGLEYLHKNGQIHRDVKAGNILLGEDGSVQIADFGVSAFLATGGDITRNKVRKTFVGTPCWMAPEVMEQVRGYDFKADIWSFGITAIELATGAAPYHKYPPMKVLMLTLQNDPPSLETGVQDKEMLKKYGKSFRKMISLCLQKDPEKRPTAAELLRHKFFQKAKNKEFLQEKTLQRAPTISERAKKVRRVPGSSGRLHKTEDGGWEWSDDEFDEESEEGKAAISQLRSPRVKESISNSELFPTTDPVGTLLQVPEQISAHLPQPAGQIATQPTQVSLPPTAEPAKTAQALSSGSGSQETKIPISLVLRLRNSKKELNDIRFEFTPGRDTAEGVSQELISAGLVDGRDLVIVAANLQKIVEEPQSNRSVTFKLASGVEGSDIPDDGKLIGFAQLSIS
Protocol: (§1) Kinase activity profiles (data not shown) were performed using radiometric assays to measure kinase catalytic activity for PCPZ concentrations ranging 0.1-500 μM in DMSO or CLP257 concentrations ranging 0.1-1000 μM in DMSO, in the presence of 70 μM ATP. Equimolar DMSO concentrations were used as control. Additional information on the kinase profiler assay can be obtained from the contractor's website. (https://www.eurofinsdiscoveryservices.com/cms/cms-content/services/in-vitro-assays/kinases/kinase-profiler).

[1] = target: T3, recombinant human STK39 (SPAK) (Homo sapiens, UniProt Q9UEW8); assay: Radiometric kinase profiling assay; type: biochemical; conditions: 70 μM ATP
T3 construct: purchased Eurofins Discovery (KinaseProfiler, contractor)
Protocol: as §1

recombinant human WNK1 = target: T4, recombinant human WNK1 (Homo sapiens, UniProt Q9H4A3); assay: Radiometric kinase profiling assay; type: biochemical; conditions: 70 μM ATP
T4 construct: purchased Eurofins Discovery (KinaseProfiler, contractor)
T4 sequence (Q9H4A3 whole entry): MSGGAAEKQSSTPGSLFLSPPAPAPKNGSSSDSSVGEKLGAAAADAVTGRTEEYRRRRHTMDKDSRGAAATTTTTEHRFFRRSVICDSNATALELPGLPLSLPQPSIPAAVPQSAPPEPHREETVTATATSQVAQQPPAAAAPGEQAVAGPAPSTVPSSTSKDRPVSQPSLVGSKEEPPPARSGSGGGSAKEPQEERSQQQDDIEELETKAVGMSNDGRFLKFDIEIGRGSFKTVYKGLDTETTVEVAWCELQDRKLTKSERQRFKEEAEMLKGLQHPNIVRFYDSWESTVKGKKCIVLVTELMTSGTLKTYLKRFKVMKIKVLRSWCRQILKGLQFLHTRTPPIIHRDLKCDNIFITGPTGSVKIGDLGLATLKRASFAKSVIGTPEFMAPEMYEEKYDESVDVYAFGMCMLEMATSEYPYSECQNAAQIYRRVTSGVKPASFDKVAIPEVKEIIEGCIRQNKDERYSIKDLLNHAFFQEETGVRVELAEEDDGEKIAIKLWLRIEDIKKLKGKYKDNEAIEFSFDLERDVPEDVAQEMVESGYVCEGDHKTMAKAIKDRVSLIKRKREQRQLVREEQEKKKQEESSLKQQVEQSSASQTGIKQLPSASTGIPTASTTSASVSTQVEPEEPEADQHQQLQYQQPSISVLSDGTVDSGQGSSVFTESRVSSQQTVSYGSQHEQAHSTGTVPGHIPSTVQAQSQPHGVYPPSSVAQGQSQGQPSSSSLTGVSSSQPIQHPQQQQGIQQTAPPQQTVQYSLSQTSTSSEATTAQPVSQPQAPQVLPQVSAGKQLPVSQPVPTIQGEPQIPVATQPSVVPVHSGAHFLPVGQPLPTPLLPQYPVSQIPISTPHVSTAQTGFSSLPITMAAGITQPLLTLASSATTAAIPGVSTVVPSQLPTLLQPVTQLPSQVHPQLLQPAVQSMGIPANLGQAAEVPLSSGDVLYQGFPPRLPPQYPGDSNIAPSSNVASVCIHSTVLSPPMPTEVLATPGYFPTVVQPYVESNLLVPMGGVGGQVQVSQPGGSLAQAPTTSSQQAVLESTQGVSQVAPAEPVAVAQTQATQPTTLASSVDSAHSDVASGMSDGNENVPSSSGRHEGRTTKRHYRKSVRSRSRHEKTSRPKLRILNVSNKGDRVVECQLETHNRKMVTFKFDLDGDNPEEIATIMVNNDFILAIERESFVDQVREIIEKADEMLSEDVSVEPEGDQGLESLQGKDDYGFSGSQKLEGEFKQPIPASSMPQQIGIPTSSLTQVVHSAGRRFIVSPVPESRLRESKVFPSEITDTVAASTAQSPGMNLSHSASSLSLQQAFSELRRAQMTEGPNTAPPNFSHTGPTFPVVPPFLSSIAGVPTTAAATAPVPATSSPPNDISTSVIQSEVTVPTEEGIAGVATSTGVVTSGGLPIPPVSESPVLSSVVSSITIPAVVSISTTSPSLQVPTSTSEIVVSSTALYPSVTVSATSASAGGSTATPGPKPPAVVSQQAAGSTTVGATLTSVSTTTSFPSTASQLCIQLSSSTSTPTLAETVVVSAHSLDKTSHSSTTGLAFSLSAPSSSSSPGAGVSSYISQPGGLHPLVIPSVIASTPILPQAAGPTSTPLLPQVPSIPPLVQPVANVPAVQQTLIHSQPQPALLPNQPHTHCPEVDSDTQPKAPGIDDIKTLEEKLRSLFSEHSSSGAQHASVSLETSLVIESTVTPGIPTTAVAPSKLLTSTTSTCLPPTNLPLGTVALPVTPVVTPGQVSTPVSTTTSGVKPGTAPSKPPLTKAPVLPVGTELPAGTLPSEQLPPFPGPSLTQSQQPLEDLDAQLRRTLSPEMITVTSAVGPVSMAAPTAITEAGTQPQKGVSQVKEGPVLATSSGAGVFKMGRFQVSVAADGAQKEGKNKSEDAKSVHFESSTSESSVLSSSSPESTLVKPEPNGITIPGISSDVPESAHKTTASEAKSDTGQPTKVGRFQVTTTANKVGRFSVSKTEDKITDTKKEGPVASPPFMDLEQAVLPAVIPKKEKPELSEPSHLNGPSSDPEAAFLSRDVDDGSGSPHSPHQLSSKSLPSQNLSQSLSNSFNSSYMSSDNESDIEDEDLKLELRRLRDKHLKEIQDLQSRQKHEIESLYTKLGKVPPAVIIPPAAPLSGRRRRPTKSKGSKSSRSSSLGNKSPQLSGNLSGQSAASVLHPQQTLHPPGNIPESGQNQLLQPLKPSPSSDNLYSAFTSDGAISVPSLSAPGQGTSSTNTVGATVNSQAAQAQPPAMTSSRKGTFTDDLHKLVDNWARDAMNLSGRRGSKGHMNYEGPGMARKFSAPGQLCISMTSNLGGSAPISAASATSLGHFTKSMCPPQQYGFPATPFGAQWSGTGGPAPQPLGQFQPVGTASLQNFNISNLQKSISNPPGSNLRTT
Protocol: as §1

recombinant human WNK3 = target: T5, recombinant human WNK3 (Homo sapiens, UniProt Q9BYP7); assay: Radiometric kinase profiling assay; type: biochemical; conditions: 70 μM ATP
T5 construct: purchased Eurofins Discovery (KinaseProfiler, contractor)
T5 sequence (Q9BYP7 whole entry): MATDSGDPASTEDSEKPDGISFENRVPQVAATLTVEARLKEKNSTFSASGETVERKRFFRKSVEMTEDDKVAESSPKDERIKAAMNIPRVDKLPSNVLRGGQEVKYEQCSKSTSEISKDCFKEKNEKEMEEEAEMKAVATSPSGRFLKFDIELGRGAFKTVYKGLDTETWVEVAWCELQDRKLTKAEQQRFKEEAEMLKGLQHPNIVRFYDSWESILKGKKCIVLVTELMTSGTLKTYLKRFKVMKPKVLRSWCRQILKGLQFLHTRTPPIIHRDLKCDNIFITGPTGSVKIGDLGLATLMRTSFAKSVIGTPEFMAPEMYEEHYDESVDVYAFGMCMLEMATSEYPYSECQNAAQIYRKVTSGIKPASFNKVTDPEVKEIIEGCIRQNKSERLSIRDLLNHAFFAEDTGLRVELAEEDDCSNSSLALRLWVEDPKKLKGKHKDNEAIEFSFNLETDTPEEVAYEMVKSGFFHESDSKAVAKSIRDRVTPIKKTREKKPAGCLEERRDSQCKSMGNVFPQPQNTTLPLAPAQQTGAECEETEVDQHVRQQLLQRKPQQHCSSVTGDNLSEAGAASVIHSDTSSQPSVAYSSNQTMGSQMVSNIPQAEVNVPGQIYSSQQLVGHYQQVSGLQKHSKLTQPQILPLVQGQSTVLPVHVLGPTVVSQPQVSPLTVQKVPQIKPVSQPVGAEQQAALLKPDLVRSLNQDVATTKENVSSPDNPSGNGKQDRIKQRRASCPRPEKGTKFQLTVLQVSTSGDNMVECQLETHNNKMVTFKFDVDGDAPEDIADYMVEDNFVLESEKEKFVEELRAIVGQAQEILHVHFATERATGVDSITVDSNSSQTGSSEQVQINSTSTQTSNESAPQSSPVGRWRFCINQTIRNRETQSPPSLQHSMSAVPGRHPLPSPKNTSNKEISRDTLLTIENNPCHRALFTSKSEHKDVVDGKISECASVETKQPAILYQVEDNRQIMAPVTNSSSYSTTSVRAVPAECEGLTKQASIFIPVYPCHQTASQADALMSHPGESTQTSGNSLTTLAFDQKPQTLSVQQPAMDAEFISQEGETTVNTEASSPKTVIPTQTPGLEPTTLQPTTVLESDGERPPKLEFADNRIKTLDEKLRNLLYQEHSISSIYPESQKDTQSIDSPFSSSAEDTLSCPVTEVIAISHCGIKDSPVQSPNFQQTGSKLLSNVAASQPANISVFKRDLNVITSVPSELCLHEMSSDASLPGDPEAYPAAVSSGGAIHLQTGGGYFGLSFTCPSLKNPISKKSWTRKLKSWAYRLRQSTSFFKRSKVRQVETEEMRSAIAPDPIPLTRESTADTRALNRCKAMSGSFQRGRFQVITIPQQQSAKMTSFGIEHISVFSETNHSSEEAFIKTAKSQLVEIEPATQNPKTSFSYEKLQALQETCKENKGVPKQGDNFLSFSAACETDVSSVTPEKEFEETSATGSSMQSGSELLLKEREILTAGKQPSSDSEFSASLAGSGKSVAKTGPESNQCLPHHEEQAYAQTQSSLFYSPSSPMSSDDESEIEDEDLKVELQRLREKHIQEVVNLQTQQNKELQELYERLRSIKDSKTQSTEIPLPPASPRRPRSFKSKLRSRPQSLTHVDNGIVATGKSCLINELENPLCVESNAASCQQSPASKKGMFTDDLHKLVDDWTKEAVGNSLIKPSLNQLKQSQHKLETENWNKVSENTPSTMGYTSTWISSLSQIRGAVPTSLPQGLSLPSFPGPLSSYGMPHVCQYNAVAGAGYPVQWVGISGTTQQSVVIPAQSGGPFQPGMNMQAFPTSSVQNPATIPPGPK
Protocol: as §1

increased KCC2 clustering observed (KCC2; 100 μM CLP257, 30 minutes) | change of KCC2 cluster area (KCC2; 100 μM CLP257, 2 h) | change of KCC2 cluster density (KCC2; 100 μM CLP257, 2 h) [%] | change of KCC2 cluster intensity (KCC2; 100 μM CLP257, 2 h) | inhibition of OSR1 kinase activity (recombinant human OSR1; CLP257 0.1-1000 μM) | inhibition of SPAK kinase activity ([1]; CLP257 0.1-1000 μM) | inhibition of WNK1 kinase activity (recombinant human WNK1; CLP257 0.1-1000 μM) | inhibition of WNK3 kinase activity (recombinant human WNK3; CLP257 0.1-1000 μM) | increased KCC2 clustering observed (KCC2; 10 μM PCPZ, 30 minutes) | change of KCC2 cluster area (KCC2; 10 μM PCPZ, 2 h) | change of KCC2 cluster density (KCC2; 10 μM PCPZ, 2 h) [%] | change of KCC2 cluster intensity (KCC2; 10 μM PCPZ, 2 h) | inhibition of OSR1 kinase activity (recombinant human OSR1; PCPZ 0.1-500 μM) | inhibition of SPAK kinase activity ([1]; PCPZ 0.1-500 μM) | inhibition of WNK1 kinase activity (recombinant human WNK1; PCPZ 0.1-500 μM) | inhibition of WNK3 kinase activity (recombinant human WNK3; PCPZ 0.1-500 μM) | Compound
not after 30 minutes only | +36.30±20.40% | −3.48±4.20 | +33.94±13.64% | no direct inhibitory effect | no direct inhibitory effect | no direct inhibitory effect | no direct inhibitory effect | – | – | – | – | – | – | – | – | O=C1N=C(N2CCCCN2)S/C1=C\c1ccc(F)cc1O [CLP257, (5Z)-5-[(4-Fluoro-2-hydroxyphenyl)methylene]-2-(tetrahydro-1-(2H)-pyridazinyl)-4(5H)-thiazolone]
– | – | – | – | – | – | – | – | not after 30 minutes only | +45.25±18.07% | −6.58±8.37 | +109±61.44% | no direct inhibitory effect | no direct inhibitory effect | no direct inhibitory effect | no direct inhibitory effect | CN1CCN(CCCN2c3ccccc3Sc3ccc(Cl)cc32)CC1 [PCPZ, prochlorperazine]
